Experimental data taken from PMC10246433 (Bioorganic & medicinal chemistry letters, 2023).
Entries after “also recorded” stand apart in the source; their conditions may differ.

What was measured:
[1] = test system: pAkt (Ser-473) in A549 cells; assay: Western-blot analysis of pAkt; conditions: 24 h treatment, compared to DMSO
A549 lung cancer cells [2] = assay: Wound-healing; conditions: 24 hr post-treatment, versus vehicle control
hNek2 kinase = biological target: T1, hNek2 kinase (Homo sapiens, UniProt P51955); assay: ADP-Glo kinase assay, recombinant hNek2; assay type: biochemical
T1 sequence (P51955 1-445): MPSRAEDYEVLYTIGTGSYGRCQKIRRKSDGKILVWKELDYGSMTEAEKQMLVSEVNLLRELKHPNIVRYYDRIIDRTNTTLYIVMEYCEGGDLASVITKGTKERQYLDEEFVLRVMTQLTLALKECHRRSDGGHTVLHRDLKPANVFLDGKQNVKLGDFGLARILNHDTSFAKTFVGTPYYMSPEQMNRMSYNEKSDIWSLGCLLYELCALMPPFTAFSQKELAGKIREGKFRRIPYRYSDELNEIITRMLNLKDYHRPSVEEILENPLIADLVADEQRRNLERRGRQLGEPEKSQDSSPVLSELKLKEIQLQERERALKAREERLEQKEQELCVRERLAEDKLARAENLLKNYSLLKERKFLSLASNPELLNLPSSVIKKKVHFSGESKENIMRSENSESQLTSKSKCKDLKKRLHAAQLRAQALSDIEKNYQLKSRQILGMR

A549 lung cancer cells [3] = assay: MTT cell viability assay, A549; conditions: Homo sapiens, A549, read-out: Cell viability EC50, A549 (Figure 6A legend)

| SMILES | Cellular levels of pAkt (Ser-473) [1] | Cell migration in wound-healing assay (A549 lung cancer cells [2]) | Mode of Nek2 inhibition (hNek2 kinase) | Selectivity towards Nek2 kinase over the other tested kinases (hNek2 kinase; versus other tested kinases (Table 1)) | EC50 (A549 lung cancer cells [3]) [µM] | Loss of Nek2 inhibitory activity / increase of IC50 compared to V8 (hNek2 kinase) |
| --- | --- | --- | --- | --- | --- | --- |
| CS(=O)(=O)N1CCC2(CC1)N=C(c1ccc(Br)cc1)C(=O)N2 [Compound V8] | reduced levels of pAkt (Ser-473) in a dose-dependent manner | migrated slower than the vehicle control; also recorded: Dose-dependent inhibiton of cell migration | competitive with respect to ATP, reversible, and selective; also recorded: selective, reversible and is not time dependent; also recorded: competitive inhibitor for ATP binding | 9- to 13 fold | 22.7 ± 0.2 | – |
| CN1CCC2(CC1)NCC(=O)N2 [Compound V0-3] | – | – | – | – | – | significant loss of potency |
| CS(=O)(=O)N1CCC2(CC1)NCC(=O)N2 [Compound V0-1] | – | – | – | – | – | > 13 fold |
